From PubChem BioAssay (NCI)
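Five compound concentrations were applied to cells in 96-well plates for 48 hours; endpoints were derived by simple linear interpolation of the resulting dose-response curve. TGI marks complete inhibition of growth.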

Legend:
Experiment in all cases: growth of human tumour cells (NCI), 48 h
EKVX NSCLC = test system: EKVX NSCLC
K-562 leukemia = test system: K-562 leukemia
SNB-19 CNS = test system: SNB-19 CNS
MDA-MB-231 breast = test system: MDA-MB-231 breast
CAKI-1 renal = test system: CAKI-1 renal
SW-620 colon = test system: SW-620 colon
NCI-H226 lung = test system: NCI-H226 lung
TK-10 renal = test system: TK-10 renal
RXF 393 renal = test system: RXF 393 renal
OVCAR-5 ovarian = test system: OVCAR-5 ovarian
NCI-H460 lung = test system: NCI-H460 lung
MOLT-4 leukemia = test system: MOLT-4 leukemia
OVCAR-4 ovarian = test system: OVCAR-4 ovarian
NCI/ADR-RES ovarian = test system: NCI/ADR-RES ovarian
A498 renal = test system: A498 renal
SR leukemia = test system: SR leukemia
SF-539 CNS = test system: SF-539 CNS
786-0 renal = test system: 786-0 renal
HCT-116 colon = test system: HCT-116 colon
UO-31 renal = test system: UO-31 renal
COLO 205 colon = test system: COLO 205 colon
HOP-92 NSCLC = test system: HOP-92 NSCLC
HOP-62 NSCLC = test system: HOP-62 NSCLC
SK-OV-3 ovarian = test system: SK-OV-3 ovarian
MCF7 breast = test system: MCF7 breast
U251 CNS = test system: U251 CNS
OVCAR-8 ovarian = test system: OVCAR-8 ovarian
IGROV1 ovarian = test system: IGROV1 ovarian
OVCAR-3 ovarian = test system: OVCAR-3 ovarian
SN12C renal = test system: SN12C renal
UACC-62 melanoma = test system: UACC-62 melanoma
CCRF-CEM leukemia = test system: CCRF-CEM leukemia
A549 NSCLC = test system: A549 NSCLC
SK-MEL-28 melanoma = test system: SK-MEL-28 melanoma
KM12 colon = test system: KM12 colon
HCT-15 colon = test system: HCT-15 colon
MDA-MB-435 = test system: MDA-MB-435
SK-MEL-5 melanoma = test system: SK-MEL-5 melanoma
SF-295 CNS = test system: SF-295 CNS
RPMI-8226 leukemia = test system: RPMI-8226 leukemia
HL-60(TB) leukemia = test system: HL-60(TB) leukemia
LOX IMVI melanoma = test system: LOX IMVI melanoma
ACHN renal = test system: ACHN renal
SK-MEL-2 melanoma = test system: SK-MEL-2 melanoma
BT-549 breast = test system: BT-549 breast
MDA-N = test system: MDA-N
M14 melanoma = test system: M14 melanoma
HT29 colon = test system: HT29 colon
NCI-H23 lung = test system: NCI-H23 lung
PC-3 prostate = test system: PC-3 prostate
UACC-257 melanoma = test system: UACC-257 melanoma
MALME-3M melanoma = test system: MALME-3M melanoma
SNB-75 CNS = test system: SNB-75 CNS
NCI-H522 lung = test system: NCI-H522 lung
T-47D breast = test system: T-47D breast
SF-268 CNS = test system: SF-268 CNS
DU-145 prostate = test system: DU-145 prostate
HCC-2998 colon = test system: HCC-2998 colon
HS 578T breast = test system: HS 578T breast

Compound: COC(=O)C1C(O)C(C(=O)OC)C(C)N(C)C1C (stereo unspecified)
- TGI (EKVX NSCLC): > 100 µM
- TGI (K-562 leukemia): > 100 µM
- TGI (SNB-19 CNS): > 100 µM
- TGI (MDA-MB-231 breast): > 100 µM
- TGI (CAKI-1 renal): > 100 µM
- TGI (SW-620 colon): > 100 µM
- TGI (NCI-H226 lung): > 100 µM
- TGI (TK-10 renal): > 100 µM
- TGI (RXF 393 renal): > 100 µM
- TGI (OVCAR-5 ovarian): > 100 µM
- TGI (NCI-H460 lung): > 100 µM
- TGI (MOLT-4 leukemia): > 100 µM
- TGI (OVCAR-4 ovarian): > 100 µM
- TGI (NCI/ADR-RES ovarian): > 100 µM
- TGI (A498 renal): > 100 µM
- TGI (SR leukemia): > 100 µM
- TGI (SF-539 CNS): > 100 µM
- TGI (786-0 renal): > 100 µM
- TGI (HCT-116 colon): > 100 µM
- TGI (UO-31 renal): > 100 µM
- TGI (COLO 205 colon): > 100 µM
- TGI (HOP-92 NSCLC): > 100 µM
- TGI (HOP-62 NSCLC): > 100 µM
- TGI (SK-OV-3 ovarian): > 100 µM
- TGI (MCF7 breast): > 100 µM
- TGI (U251 CNS): > 100 µM
- TGI (OVCAR-8 ovarian): > 100 µM
- TGI (IGROV1 ovarian): > 100 µM
- TGI (OVCAR-3 ovarian): > 100 µM
- TGI (SN12C renal): > 100 µM
- TGI (UACC-62 melanoma): > 100 µM
- TGI (CCRF-CEM leukemia): > 100 µM
- TGI (A549 NSCLC): > 100 µM
- TGI (SK-MEL-28 melanoma): > 100 µM
- TGI (KM12 colon): > 100 µM
- TGI (HCT-15 colon): > 100 µM
- TGI (MDA-MB-435): > 100 µM
- TGI (SK-MEL-5 melanoma): > 100 µM
- TGI (SF-295 CNS): > 100 µM
- TGI (RPMI-8226 leukemia): > 100 µM
- TGI (HL-60(TB) leukemia): > 100 µM
- TGI (LOX IMVI melanoma): > 100 µM
- TGI (ACHN renal): > 100 µM
- TGI (SK-MEL-2 melanoma): > 100 µM
- TGI (BT-549 breast): > 100 µM
- TGI (MDA-N): > 100 µM
- TGI (M14 melanoma): > 100 µM
- TGI (HT29 colon): > 100 µM
- TGI (NCI-H23 lung): > 100 µM
- TGI (PC-3 prostate): > 100 µM
- TGI (UACC-257 melanoma): > 100 µM

Compound: COc1ccc(/C=C2\C[C@H]3[C@@H]4CCC5=C/C(=N/O)CC[C@]5(C)[C@H]4CC[C@]3(C)\C2=N\O)cc1OC
- TGI (EKVX NSCLC): 32 µM
- TGI (K-562 leukemia): > 100 µM
- TGI (SNB-19 CNS): > 100 µM
- TGI (CAKI-1 renal): > 100 µM
- TGI (SW-620 colon): > 100 µM
- TGI (NCI-H226 lung): > 100 µM
- TGI (MALME-3M melanoma): > 100 µM
- TGI (RXF 393 renal): > 100 µM
- TGI (OVCAR-5 ovarian): > 100 µM
- TGI (NCI-H460 lung): > 100 µM
- TGI (MOLT-4 leukemia): 94.3 µM
- TGI (OVCAR-4 ovarian): > 100 µM
- TGI (SNB-75 CNS): > 100 µM
- TGI (NCI/ADR-RES ovarian): > 100 µM
- TGI (A498 renal): > 100 µM
- TGI (SR leukemia): > 100 µM
- TGI (SF-539 CNS): > 100 µM
- TGI (786-0 renal): > 100 µM
- TGI (HCT-116 colon): > 100 µM
- TGI (UO-31 renal): > 100 µM
- TGI (HOP-92 NSCLC): > 100 µM
- TGI (HOP-62 NSCLC): > 100 µM
- TGI (SK-OV-3 ovarian): > 100 µM
- TGI (MCF7 breast): > 100 µM
- TGI (OVCAR-8 ovarian): > 100 µM
- TGI (IGROV1 ovarian): > 100 µM
- TGI (NCI-H522 lung): > 100 µM
- TGI (OVCAR-3 ovarian): > 100 µM
- TGI (SN12C renal): > 100 µM
- TGI (UACC-62 melanoma): > 100 µM
- TGI (T-47D breast): > 100 µM
- TGI (SF-268 CNS): > 100 µM
- TGI (CCRF-CEM leukemia): > 100 µM
- TGI (A549 NSCLC): > 100 µM
- TGI (DU-145 prostate): > 100 µM
- TGI (SK-MEL-28 melanoma): > 100 µM
- TGI (KM12 colon): > 100 µM
- TGI (HCT-15 colon): > 100 µM
- TGI (MDA-MB-435): > 100 µM
- TGI (SK-MEL-5 melanoma): 14.9 µM
- TGI (SF-295 CNS): 88.4 µM
- TGI (RPMI-8226 leukemia): 60.3 µM
- TGI (HCC-2998 colon): > 100 µM
- TGI (HL-60(TB) leukemia): 76.8 µM
- TGI (LOX IMVI melanoma): > 100 µM
- TGI (ACHN renal): > 100 µM
- TGI (SK-MEL-2 melanoma): 54.5 µM
- TGI (BT-549 breast): > 100 µM
- TGI (MDA-N): > 100 µM
- TGI (M14 melanoma): > 100 µM
- TGI (HT29 colon): > 100 µM
- TGI (NCI-H23 lung): > 100 µM
- TGI (HS 578T breast): > 100 µM
- TGI (PC-3 prostate): > 100 µM
- TGI (UACC-257 melanoma): > 100 µM
